Results as given in patent US20230138729A1, “Coumarin Derivatives of Sugar Analogs and Uses Thereof” (Rubedo Life Sciences, Inc., priority 2021, published 2023).

What was measured:
[1] = target: T1, Recombinant human GLB1 (rhGLB1) (Homo sapiens, UniProt P16278); test: Enzymatic hydrolysis by recombinant human GLB1 (fluorescence reaction velocity); format: biochemical; details: compound 500 uM; for rhGLB1 substrate: pH 4.4 McIlvaine Buffer, 37° C.; for Average percent of MU-Gal reaction velocity: pH 4.4, 37° C., relative to positive control MU-Gal
T1 sequence (P16278 29-677): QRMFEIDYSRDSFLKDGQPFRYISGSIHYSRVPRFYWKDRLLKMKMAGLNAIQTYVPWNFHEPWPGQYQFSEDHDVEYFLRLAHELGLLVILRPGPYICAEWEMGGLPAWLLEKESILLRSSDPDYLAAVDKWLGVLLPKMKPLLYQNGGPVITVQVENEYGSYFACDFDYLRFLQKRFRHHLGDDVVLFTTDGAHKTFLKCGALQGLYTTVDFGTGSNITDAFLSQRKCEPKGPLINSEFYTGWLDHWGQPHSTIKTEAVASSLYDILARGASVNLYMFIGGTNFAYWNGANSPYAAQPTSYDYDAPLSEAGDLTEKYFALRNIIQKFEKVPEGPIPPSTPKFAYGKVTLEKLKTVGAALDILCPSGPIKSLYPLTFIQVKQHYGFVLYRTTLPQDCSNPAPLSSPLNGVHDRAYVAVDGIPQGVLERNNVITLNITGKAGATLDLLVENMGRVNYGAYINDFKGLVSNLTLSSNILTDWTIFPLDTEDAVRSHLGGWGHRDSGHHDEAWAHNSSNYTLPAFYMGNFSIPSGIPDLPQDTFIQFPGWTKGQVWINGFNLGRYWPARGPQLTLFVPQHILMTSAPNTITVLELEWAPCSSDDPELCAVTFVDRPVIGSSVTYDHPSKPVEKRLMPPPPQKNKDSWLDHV
Protocol: (§1) Compounds were added to wells of a black-walled clear bottom 96 well plate at a concentration of […]. 4-methylumbelliferyl-alpha-L-fucopyranoside (referred to as MU-Fuc, CAS 54322-38-2) or 4-methylumbelliferyl-beta-D-galactopyranoside (referred to as MU-Gal, CAS 6160-78-7) were included as positive control compounds. Recombinant human FUCA1 (1-25 nM) or GLB1 (2-50 nM) in reaction buffer comprised of pH 4.4 McIlvaine Buffer, 2 mM dithiothreitol and 0.1% (v/v) Tween-20 was added to the wells. Enzyme-free controls were included to check for spontaneous compound hydrolysis. The plate was shaken and incubated at 37° C. in the plate reader. Every 5 minutes, fluorescence was read at the excitation wavelength of 330 nm and the emission wavelength of 450 nm for up to 3 hours. Linear regressions were calculated during the linear phase of the reaction to calculate the reaction velocity at each concentration of compound. Reaction velocities for compounds at 500 uM were compared as a percentage of the appropriate positive control compound.
Hydrolysis by the recombinant human GLB1 (rhGLB1) enzyme of modified galactose sugars conjugated to 4-methylumbelliferone was assessed by quantifying the generation of fluorescence over time as described in Example 10 and is compiled in Table 1, supra. Reaction rates of each compound were compared to the hydrolysis rate of the unmodified galactose conjugate MU-Gal. Of the modified galactose compounds tested, compound 42 was rapidly hydrolyzed, at a rate about 8% of that of MU-Gal. Compounds 33 and 6 were hydrolyzed with reaction velocities about 4% or 3% of that of MU-Gal, respectively. Compounds 35, 31, and 27 were hydrolyzed by rhGLB1, but slowly compared to MU-Gal with rates less than 2% of that of MU-Gal.

[2] = target: T2, Recombinant human FUCA1 (rhFUCA1) (Homo sapiens, UniProt P04066); test: Enzymatic hydrolysis by recombinant human FUCA1 (fluorescence reaction velocity); format: biochemical; details: compound 500 uM; for rhFUCA1 substrate: pH 4.4 McIlvaine Buffer, 37° C.; for Average reaction velocity relative to MU-Fuc (%): pH 4.4, 37° C., relative to positive control MU-Fuc
T2 sequence (P04066 32-466): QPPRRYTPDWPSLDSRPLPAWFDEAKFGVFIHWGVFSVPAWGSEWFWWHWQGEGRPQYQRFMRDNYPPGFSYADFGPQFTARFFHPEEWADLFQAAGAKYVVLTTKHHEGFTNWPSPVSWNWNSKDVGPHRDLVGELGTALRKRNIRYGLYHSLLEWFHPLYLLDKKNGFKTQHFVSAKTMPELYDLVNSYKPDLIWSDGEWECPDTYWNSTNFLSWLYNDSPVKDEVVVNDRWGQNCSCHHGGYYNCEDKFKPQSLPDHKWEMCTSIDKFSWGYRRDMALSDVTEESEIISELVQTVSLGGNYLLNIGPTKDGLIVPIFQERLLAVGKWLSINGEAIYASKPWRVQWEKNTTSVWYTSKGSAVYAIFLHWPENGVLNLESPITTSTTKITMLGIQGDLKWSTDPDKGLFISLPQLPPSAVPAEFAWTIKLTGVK
Protocol: as §1
Hydrolysis by the recombinant human FUCA1 enzyme (rhFUCA1) of modified fucose sugars conjugated to 4-methylumbelliferone or 7-amino-4-methylcoumarin was assessed by quantifying the generation of fluorescence over time as described in Example 10 and is compiled in Table 1, supra. Reaction rates of each compound were compared to the hydrolysis of the unmodified fucose conjugate MU-Fuc (14). Compound 43 was hydrolyzed by rhFUCA1 at a velocity about 35% of that of MU-Fuc. The reaction rate of 19 with rhFUCA1 was about 30% of that of MU-Fuc.

[3] = test system: T47D breast cancer cells (sgNTC control); test: Cellular hydrolysis of compounds in live T47D control cells (4-MU fluorescence); format: cell-based; details: compound 30 uM, naked sugar and acetylated version; for Average percent of product relative to 26 at 72 hours in T47D control cells: modified galactose conjugates
Protocol: (§2) T47D breast cancer cells were cultured in RPMI 1640 medium containing 10% heat inactivated fetal bovine serum. Cell lines were infected with lentiviral construct(s) containing S. pyogenes Cas9 and sgRNA(s) targeting the gene(s) of interest (sgNTC, non-targeting control; sgFUCA1_1, FUCA1 knockout). Infected cells were selected by antibiotic treatment. To assess the cellular hydrolysis of compounds, cells were seeded at 3-20,000 cells per well into 96-well plates and incubated at 37° C. with 5% CO2. The next day, compounds (30 uM) were added to the cells. Wells containing only compounds in media were included as background fluorescence controls. 4-methylumbelliferyl-alpha-L-fucopyranoside (referred to as MU-Fuc, CAS 54322-38-2) or 4-methylumbelliferyl-2,3,4,6-tetra-O-acetyl-beta-D-galactopyranoside (CAS 6160-79-8) were included as positive controls. A 4-methylumbelliferone (referred to as 4-MU, CAS 90-33-5) standard ladder ranging from 39 to 5000 pmoles was added to each cell line. Fluorescence was read at the excitation wavelength of 330 nm and the emission wavelength of 450 nm on the plate reader every 24 hours for 72 hours. The plate was returned to the 37° C. 5% CO2 incubator between readings. A linear regression was performed to determine the slope of the line relating fluorescence to pmoles of 4-MU standard at each time point. The average cell-free background fluorescence for each compound at each time point was subtracted from all compound sample fluorescence measurements. Compound sample fluorescence was converted to pmoles of 4-MU by dividing by the slope of the 4-MU linear regression. The amount of 4-MU present at 72 hours for each compound in each cell line was compared as a percentage of the appropriate positive control compound.
The hydrolysis of modified galactose sugars conjugated to 4-methylumbelliferone in live cells was assessed by incubating the compounds in media with T47D breast cancer cells for 3 days and quantifying the generation of fluorescence over time as described in Example 11 and is compiled in Table 3, supra. […]

[4] = test system: T47D FUCA1 knockout cells; test: Cellular hydrolysis in T47D FUCA1 knockout cells versus T47D control cells; format: cell-based; details: compound 30 uM
Protocol: as §2, with “4-methylumbelliferyl-alpha-L-fucopyranoside (referred to as MU-Fuc, CAS 54322-38-2) or 4-methylumbelliferyl-2,3,4,6-tetra-O-acetyl-beta-D-galactopyranoside (CAS 6160-79-8) were included as positive controls. A 4-methylumbelliferone (referred to as 4-MU, CAS 90-33-5) standard ladder ranging from 39 to 5000 pmoles was added to each cell line.” left out, “The plate was returned to the 37° C.” left out, “The amount of 4-MU present at 72 hours for each compound in each cell line was compared as a percentage of the appropriate positive control compound.” left out

Row | rhGLB1 substrate [1] | rhFUCA1 substrate [2] | Compound | Average percent of MU-Gal reaction velocity [1] [%] | also measured
1 | yes | – | Cc1cc(=O)oc2cc(O[C@@H]3O[C@H](CO)C[C@H](O)[C@H]3O)ccc12 [Compound 33] | – | –
2 | yes | – | Cc1cc(=O)oc2cc(O[C@@H]3O[C@H](CO)[C@H](O)C[C@H]3O)ccc12 [Compound 35] | – | –
3 | – | yes | COc1ccc(C2O[C@H]3[C@H](O)[C@H](Oc4ccc5c(C)cc(=O)oc5c4)O[C@@H](C)[C@H]3O2)cc1 (stereo partly drawn) [Compound 43, 7-(((3aR,4S,6S,7S,7aS)-7-hydroxy-2-(4-methoxyphenyl)-4-methyltetrahydro-3aH-[1,3]dioxolo[4,5-c]pyran-6-yl)oxy)-4-methyl-2H-chromen-2-one] | – | –
4 | – | yes | Cc1cc(=O)oc2cc(NC(=O)OCc3ccc(O[C@@H]4O[C@@H](C)[C@@H](O)[C@@H](O)[C@@H]4O)cc3)ccc12 [Compound 50, [4-[(2S,3S,4R,5S,6S)-3,4,5-trihydroxy-6-methyl-tetrahydropyran-2-yl]oxyphenyl]methyl N-(4-methyl-2-oxo-chromen-7-yl)carbamate] | – | Average reaction velocity relative to MU-Fuc (%) [2]: 16.7%

Second part, the compound before the results:

Row | Compound | rhGLB1 substrate [1] | rhFUCA1 substrate [2] | Average percent of MU-Gal reaction velocity [1] [%] | also measured
5 | Cc1cc(=O)oc2cc(O[C@H]3C[C@H](O)[C@H](O)[C@H](C)O3)ccc12 [Compound 19, (2S,3R,4S,6S)-2-methyl-6-((4-methyl-2-oxo-2H-chromen-7-yl)oxy)tetrahydro-2H-pyran-3,4-diyl diol] | – | yes | – | –
6 | Cc1cc(=O)oc2cc(O[C@@H]3O[C@@H](C)[C@@H](O)[C@@H](O)[C@@H]3O)ccc12 [Compound 14, 4-methyl-7-(((2S,3S,4R,5S,6S)-3,4,5-trihydroxy-6-methyltetrahydro-2H-pyran-2-yl)oxy)-2H-chromen-2-one, reference compound] | yes | yes | 7.6 | Average percent of product relative to MU-Fuc (14) at 72 hours by T47D control cells ([3]; modified fucose conjugates): 100%; Average reaction velocity relative to MU-Fuc (%) [2]: 100%
7 | Cc1cc(=O)oc2cc(O[C@@H]3O[C@H](CO)[C@H](O)[C@H](F)[C@H]3O)ccc12 [Compound 31] | yes | – | – | –
8 | Cc1cc(=O)oc2cc(O[C@H]3C[C@@H](O)[C@@H](O)[C@@H](CO)O3)ccc12 [Compound 24] | not hydrolyzed and no | – | 0 | –
9 | CC(=O)O[C@H]1[C@H](OC(C)=O)[C@H](Oc2ccc3c(C)cc(=O)oc3c2)O[C@@H](C)[C@H]1OC(C)=O [Compound 44] | – | – | – | Average percent of product formed by each compound at 72 hours in T47D FUCA1 knockout cells relative to product formed in T47D control cells [4]: 8%
10 | (2R,3S,4S,5R,6S)-2-(acetoxymethyl)-5-fluoro-6-((4-methyl-2-oxo-2H-chromen-7-yl)oxy)tetrahydro-2H-pyran-3,4-diyl diol [Compound 20] | not hydrolyzed and no | – | 0 | Average percent of product relative to 26 at 72 hours in T47D control cells [3]: 0%
11 | (2S,3R,4R,5S,6S)-5-fluoro-2-methyl-6((4-methyl-2-oxo-2H-chromen-7-yl)oxy)tetrahydro-2H-pyran-3,4-diyl diacetate [Compound 27] | yes | – | – | Average percent of product relative to 26 at 72 hours in T47D control cells [3]: 13%
12 | Cc1cc(=O)oc2cc(O[C@@H]3O[C@H](CO)[C@H](O)[C@H](O)[C@H]3O)ccc12 [MU-Gal, 4-methylumbelliferyl-beta-D-galactopyranoside, reference compound] | yes | – | 100 | –
13 | Cc1cc(=O)oc2cc(NC(=O)OCc3ccc(NC(=O)O[C@@H]4O[C@@H](C)[C@@H](O)[C@@H](O)[C@@H]4O)cc3)ccc12 [Compound 59, [4-[[(2S,3S,4R,5S,6S)-3,4,5-trihydroxy-6-methyl-tetrahydropyran-2-yl]oxycarbonylamino]phenyl]methyl N-(4-methyl-2-oxo-chromen-7-yl)carbamate] | – | yes | – | –
